In US20240335428A1, “PATEAMINE A DERIVATIVE FOR TREATING PANCREATIC CANCER” (Baylor University, priority 2023, published 2024):

Columns and labels:
Cyclin D1 = assay: Western blot of oncoproteins in PDAC cell lines; format: cell-based; conditions: PDAC cell lines MIA PaCa-2 and AsPC-1, western blot
Source text: (§1) FIGS. 3A and 3B are images of western blots showing the effect of DMDAPatA and DMPatA in PDAC cell lines (MiaPaca-2 and AsPc-1). In the figures, MZ735 is DMPatA and PatA is DMDAPatA.
(§2) FIGS. 5A and 5B are images of western blots showing the effect of DMPatA and DMDAPatA on oncoproteins c-MYC and Cyclin D1 in PDAC cell lines: MIA PaCa-2; PANC-1; Capan-1; and AsPC-1. In the figures, MZ is DMPatA and PatA is DMDAPatA.
(§3) eIF4A inhibitors selectively repress the expression levels of key proteins in PDAC cell lines. FIGS. 3A and 3B are images of western blots showing the effect of DMDAPatA and DMPatA in PDAC cell lines (MIA PaCa-2 and AsPC-1). […] These proteins are commonly used as controls in western blot analysis and are so-called because they are typically not susceptible to agents that alter gene or protein expression.
(§4) FIGS. 5A and 5B are images of western blots showing the effect of DMPatA and DMDAPatA on oncoproteins c-MYC and Cyclin D1 in PDAC cell lines: MIA PaCa-2; PANC-1; Capan-1; and AsPC-1.

c-MYC = assay: Western blot of oncoproteins in PDAC cell lines; format: cell-based; conditions: PDAC cell lines MIA PaCa-2 and AsPC-1, western blot
Source text: as §1, §2, §3, §4

[1] = test system: PDAC cell lines: MIA PaCa-2; PANC-1; Capan-1; AsPC-1; assay: Cell proliferation / viability assay (CellTiter-Glo); format: cell-based; conditions: for cell proliferation (viability): PDAC cells, 48 h and 72 h, Cell-Titer Glo
Experimental: FIGS. 2A-2D are viability curves of DMDAPatA and DMPatA in four representative PDAC cell lines: MIA PaCa-2; Panc-1; Capan-1; and AsPC-1. PDAC cell lines were treated with DMPatA and DMDAPatA at the indicated concentrations for 48 h and 72 h. Cell viability was determined using Cell-Titer Glo (Promega). Viability (%, Y-axis) was plotted against drug concentration (log nM, X-axis). In the figures, MZ is DMPatA and PatA is DMDAPatA.
See Example 2. FIGS. 2A-2D are viability curves of DMDAPatA and DMPatA in four representative PDAC cell lines: MIA PaCa-2; PANC-1; Capan-1; and AsPC-1.
In this example, the effectiveness of DMPatA and DMDAPatA in reducing the proliferation of PDAC cancer cell lines is described.
Cell viability was measured using CellTiter-Glo® reagent (Promega, #G7570), according to the manufacturer's instructions. Briefly, cells were seeded at a density of […] in white 96-well plates and allowed to grow overnight. Cells were then treated with/without the combination and single agents as described earlier and incubated 37° C. and 5% CO2 for appropriate time points. After incubation assay reagent was added to the cells and luminescent signal values were quantified using microplate reader (PHERAstar® FS, BMG LABTECH, Ortenberg, Germany).

hyaluronic acid = assay: Hyaluronic acid staining (biotinylated-HABP, confocal imaging, CTCF); format: cell-based; conditions: MIA PaCa-2 cells, 5 nM DMPatA, 24 h versus untreated control, CTCF (P<0.05)
Experimental: (§5) CD44 is the cell surface receptor for hyaluronic acid. Dense stroma with high levels of hyaluronic acid and extracellular matrix are among factors that are said to contribute to drug resistance in PDAC due to reduced permeability of anticancer therapies. Reduction of CD44 could facilitate the activity of chemotherapy or other combination therapy. MIA PaCa-2 cells were treated with 5 nM of DMPatA for 24 h versus untreated control. Cells were stained for HA using biotinylated-HABP and anti-CD44. FIG. 6A compares the analysis of the corrected total cell fluorescence (CTCF) based on data extracted from confocal imaging (P<0.05) and FIG. 6B compares western blot showing the effect of DMPatA and DMDAPatA on stromal proteins HAS3 and CD44. In the figures, MZ and MZ735 are DMPatA and PatA is DMDAPatA.
(§6) MIA PaCa-2 cells were treated with 5 nM of DMPatA for 24 h versus untreated control. Cells were stained for HA using biotinylated-HABP and anti-CD44. FIG. 6A compares the analysis of the corrected total cell fluorescence (CTCF) based on data extracted from confocal imaging (P<0.05) and FIG. 6B compares western blot showing the effect of DMPatA and DMDAPatA on stromal proteins HAS3 and CD44.

Mia-Paca-2 cells = assay: Mouse xenograph model (subcutaneous Mia-Paca-2 tumors); format: in vivo, female athymic nude mice
Source text: In this example, the effectiveness of DMPatA in reducing tumor size in a mouse xenograph model is described.
Intraperitoneal therapy for PDAC. One of the most difficult complications of pancreatic cancer is the development of peritoneal carcinomatosis, which may occur as the presenting manifestation of PDAC, much as occurs with ovarian cancer, or may appear late in the course of the disease. In either case, the prognosis for peritoneal carcinomatosis and cytology-positive ascites is grim, at times portending survival of only a few weeks. […] The second major problem is that recurrent ascites requires frequent large volume paracentesis—which depletes the patient of protein and nutrients. […] Des-methyl pateamine A (DMPatA, MZ735) can be used as a novel intraperitoneal therapy able to directly treat intraperitoneal carcinomatosis. In certain embodiments, the safe intraperitoneal dose is 0.075-0.1 mg/kg, as established in a mouse xenograpgh model.
Fifteen female athymic nude mice were implanted with 5×10^6 Mia-Paca-2 cells, injected subcutaneously into the right flank with 50% Matrigel. Once tumors reached 100-200 mm^3 in volume, mice were randomized and enrolled into the study with three treatment groups including vehicle, MZ735 0.075, MZ735 0.1 mg/kg.
Mice were dosed once every four days interperitoneally (IP) for 28 days. Weights were taken twice per week to ensure overall health. All formulations were prepared on a day prior to, or on the day of dosing, using a serial dilution method and stored at 4° C. Formulations for this study were made using a vehicle of 10% Ethanol, 10% Cremophor EL, 4% glucose, and 76% PBS.
Body weights and tumor measurements were recorded twice weekly per OPTIC core-Tumor Growth Measurement at Columbia University.
At the end of the study mice were euthanized via CO2 asphyxiation, per IACUC approved Euthanasia protocol at Columbia University.

CD44 = CD44 level (anti-CD44 confocal imaging, western blot); format: cell-based; conditions: MIA PaCa-2 cells, 5 nM DMPatA, 24 h, CTCF (P<0.05)
Experimental: as §5, §6

GAPDH and beta-actin = assay: Western blot of housekeeping proteins; format: cell-based; conditions: PDAC cell lines
Source text: as §1, §3

[2] = compared with parent natural product PatA; cited from earlier work
[3] = Protein binding in human plasma; format: in vitro ADME

Row | Compound | protein level of Cyclin D1 (Cyclin D1) | protein level of c-MYC (c-MYC) | cell proliferation (viability) [1] | potency relative to DMDAPatA ([1]; viability curves in four PDAC cell lines) | levels of hyaluronic acid (hyaluronic acid) | volume of subcutaneously implanted tumors (Mia-Paca-2 cells; 0.075-0.1 mg/kg IP once every four days for 28 days, Mia-Paca-2 xenograft) | absorption via the peritoneum (Mia-Paca-2 cells; intraperitoneal dose 0.075-0.1 mg/kg, mouse) | safe intraperitoneal dose (Mia-Paca-2 cells; mouse xenograph model, intraperitoneal) [mg/kg] | levels of CD44 (CD44) | expression of housekeeping proteins GAPDH and beta-actin (GAPDH and beta-actin) | stability relative to PatA [2] | protein binding in human plasma [3]
1 | des-methyl pateamine A [DMPatA] | inhibiting the protein level | inhibiting the protein level | inhibit cell proliferation | greater potency relative to DMDAPatA | reduce the levels | reduce the volume of subcutaneously implanted tumors | can be absorbed via the peritoneum | 0.075 to 0.1 | reduce the levels | stably expressed | – | –
2 | CC(/C=C/C(C)=C/[C@@H]1Cc2nc(cs2)CCCCC(=O)O[C@@H](C)C/C(C)=C/C=C\C(=O)O1)=C\CN(C)C [DMDAPatA, des-methyl des-amino pateamine A] | inhibiting the protein level | inhibiting the protein level | inhibit cell proliferation | – | reduce the levels | – | – | – | reduce the levels | – | more stable | highly protein bound
